How the values were obtained:
[1] = target: Sodium-dependent serotonin transporter (Homo sapiens, UniProt P31645); assay: Inhibition of human SERT
[2] = target: T1, Sodium-dependent dopamine transporter (Homo sapiens, UniProt Q01959); assay: Inhibition of DAT at 1 uM
[3] = target: T1, Sodium-dependent dopamine transporter; assay: Inhibition of DAT
[4] = target: T2, Sodium-dependent noradrenaline transporter (Homo sapiens, UniProt P23975); assay: Inhibition of NET at 1 uM
[5] = target: T2, Sodium-dependent noradrenaline transporter; assay: Inhibition of NET

Chain of Sodium-dependent serotonin transporter (P31645 whole entry): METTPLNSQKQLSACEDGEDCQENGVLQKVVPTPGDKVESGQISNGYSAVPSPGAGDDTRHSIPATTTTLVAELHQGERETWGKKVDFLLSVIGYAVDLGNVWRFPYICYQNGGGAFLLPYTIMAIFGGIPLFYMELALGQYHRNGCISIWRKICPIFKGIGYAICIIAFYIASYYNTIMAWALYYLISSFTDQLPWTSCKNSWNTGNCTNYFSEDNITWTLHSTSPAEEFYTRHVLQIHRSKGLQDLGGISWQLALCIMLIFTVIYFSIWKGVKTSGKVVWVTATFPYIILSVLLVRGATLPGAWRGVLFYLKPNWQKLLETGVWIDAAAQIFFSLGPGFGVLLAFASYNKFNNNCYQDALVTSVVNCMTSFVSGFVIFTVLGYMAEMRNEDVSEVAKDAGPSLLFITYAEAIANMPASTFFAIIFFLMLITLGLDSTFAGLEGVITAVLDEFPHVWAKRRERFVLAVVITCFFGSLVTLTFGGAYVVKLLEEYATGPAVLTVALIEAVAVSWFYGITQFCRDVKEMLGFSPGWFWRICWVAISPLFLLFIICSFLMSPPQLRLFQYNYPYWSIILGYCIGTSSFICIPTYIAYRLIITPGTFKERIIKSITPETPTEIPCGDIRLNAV
T2 sequence (P23975 whole entry): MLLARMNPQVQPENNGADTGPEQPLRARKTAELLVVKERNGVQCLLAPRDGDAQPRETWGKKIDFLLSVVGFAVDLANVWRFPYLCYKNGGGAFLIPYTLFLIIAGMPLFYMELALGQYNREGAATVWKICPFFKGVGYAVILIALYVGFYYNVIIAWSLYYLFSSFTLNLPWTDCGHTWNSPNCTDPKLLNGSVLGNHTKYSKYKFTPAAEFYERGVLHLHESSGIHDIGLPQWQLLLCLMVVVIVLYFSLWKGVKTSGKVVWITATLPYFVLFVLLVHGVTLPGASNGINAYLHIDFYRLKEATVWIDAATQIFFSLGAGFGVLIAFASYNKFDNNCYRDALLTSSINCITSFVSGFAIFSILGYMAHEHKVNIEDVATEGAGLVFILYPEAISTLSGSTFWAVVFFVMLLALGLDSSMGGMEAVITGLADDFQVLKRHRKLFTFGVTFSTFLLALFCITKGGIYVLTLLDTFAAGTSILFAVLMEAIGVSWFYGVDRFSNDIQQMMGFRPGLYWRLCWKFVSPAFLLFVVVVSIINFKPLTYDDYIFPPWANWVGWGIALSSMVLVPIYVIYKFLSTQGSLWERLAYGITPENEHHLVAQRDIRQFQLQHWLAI
T1 sequence (Q01959 whole entry): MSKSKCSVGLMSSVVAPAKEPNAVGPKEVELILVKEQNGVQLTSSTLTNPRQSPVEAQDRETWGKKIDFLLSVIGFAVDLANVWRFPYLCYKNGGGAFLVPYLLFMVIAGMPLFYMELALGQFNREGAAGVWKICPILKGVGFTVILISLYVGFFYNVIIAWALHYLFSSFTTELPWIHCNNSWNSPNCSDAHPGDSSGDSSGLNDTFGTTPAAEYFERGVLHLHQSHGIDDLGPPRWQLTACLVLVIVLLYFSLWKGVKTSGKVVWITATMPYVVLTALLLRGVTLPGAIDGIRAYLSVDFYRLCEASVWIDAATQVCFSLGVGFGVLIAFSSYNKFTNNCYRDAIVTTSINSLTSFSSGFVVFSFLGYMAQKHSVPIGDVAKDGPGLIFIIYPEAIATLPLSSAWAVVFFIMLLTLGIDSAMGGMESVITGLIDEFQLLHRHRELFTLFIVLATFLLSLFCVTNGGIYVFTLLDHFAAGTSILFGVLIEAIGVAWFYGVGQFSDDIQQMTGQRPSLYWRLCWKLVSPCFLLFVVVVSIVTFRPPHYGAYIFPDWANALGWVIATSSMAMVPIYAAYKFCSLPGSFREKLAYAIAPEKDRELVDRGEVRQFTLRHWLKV

Compound	IC50 [1] [nM]	inhibition [2] [%]	IC50 [3] [nM]	inhibition [4] [%]	IC50 [5] [nM]
CN(C)C[C@H]1C[C@@H]1c1c[nH]c2ccc(C#N)cc12	0.48	–	–	–	–
CNCC1CC1c1cccc2cc(C#N)ccc12 (stereo unspecified)	17	–	–	–	–
CN(C)CC1CC1c1cnc2ccccc2c1 (stereo unspecified)	130	–	–	–	–
CCNCC1CC1c1cccc2cc(C#N)ccc12 (stereo unspecified)	37	–	–	–	–
CCN(CC)CC1CC1c1cccc2cc(C#N)ccc12 (stereo unspecified)	67	–	–	–	–
CN(C)CC1CC1c1ccc2cc(C#N)ccc2c1 (stereo unspecified)	13	41	1100	69	560
CN(Cc1ccccc1)CC1CC1c1cccc2cc(C#N)ccc12 (stereo unspecified)	16	–	–	–	–
CN(C)CC1CC1c1cccc2c(C#N)cccc12 (stereo unspecified)	48	9.5	12000	25	39000
CNCC1CC1c1ccc2ccccc2c1 (stereo unspecified)	52	–	–	–	–
CCN(C)CC1CC1c1ccc2ccccc2c1 (stereo unspecified)	310	–	–	–	–
CCN(CC)CC1CC1c1ccc2ccccc2c1 (stereo unspecified)	550	–	–	–	–
CCN(C)CC1CC1c1cccc2ccccc12 (stereo unspecified)	58	–	–	–	–
N#Cc1ccc2c(C3CC3CN3CCCC3)cccc2c1 (stereo unspecified)	51	–	–	–	–
CCN(CC)CC1CC1c1cccc2ccccc12 (stereo unspecified)	120	–	–	–	–
CNCC1CC1c1cccc2ccccc12 (stereo unspecified)	89	–	–	–	–
CN(C)CC1CC1c1cccc2cc(C#N)ccc12 (stereo unspecified)	4.1	16	8700	20	19000
CN(C)CC1CC1c1ccc2cc(C#N)c(C#N)cc2c1 (stereo unspecified)	5.9	80	–	82	–
CN(C)CC1CC1c1cncc2ccccc12 (stereo unspecified)	> 1000	–	–	–	–
CN(C)CC1CC1c1c[nH]c2ccc(C#N)cc12 (racemic)	1.1	–	–	–	–

Compound	IC50 [1] [nM]	inhibition [2] [%]	IC50 [3] [nM]	inhibition [4] [%]	IC50 [5] [nM]
CN(C)C[C@H]1C[C@@H]1c1c[nH]c2ccc(F)cc12 (racemic)	4.1	–	–	–	–
CN(C)CC1CC1c1ccc2ccc(C#N)cc2c1 (racemic)	83	83	260	68	710
CN(C)C[C@H]1C[C@@H]1c1c[nH]c2ccccc12 (racemic)	99	–	–	–	–
CN(C)CC1CC1c1c[nH]c2ncccc12 (racemic)	410	–	–	–	–
CN(C)CC1CC1c1n[nH]c2ccc(C#N)cc12 (racemic)	71	0	44000	-4.9	> 100000
CN(C)CC1CC1c1cnc2ccccn12 (racemic)	> 1000	–	–	–	–
CN(C)CC1CC1c1ccc2ccccc2c1 (single isomer, unassigned; (+)) [listing 1 of 2 here]	8.6	–	2400	–	8700
CN(C)CC1CC1c1cccc2ccccc12 (single isomer, unassigned; (+)) [listing 1 of 2 here]	18	–	33000	–	68000
CN(C)CC1CC1c1ccc2ccccc2c1 (single isomer, unassigned; (+)) [listing 2 of 2 here]	–	31	–	18	–
CN(C)CC1CC1c1cccc2ccccc12 (single isomer, unassigned; (+)) [listing 2 of 2 here]	–	12	–	2.3	–
CN(C)CC1CC1c1ccc2ccccc2c1 (single isomer, unassigned; (-))	140	–	–	–	–
CN(C)CC1CC1c1cccc2ccccc12 (single isomer, unassigned; (-))	170	–	–	–	–
CN(C)CC1CC1c1csc2ccccc12 (stereo in doubt; 6)	25	–	–	–	–
CN(C)CC1CC1c1cccc2ccccc12 (stereo in doubt; 9b)	15	–	–	–	–
CN(C)CC1CC1c1ccc2ccccc2c1 (stereo in doubt; 10b)	8.6	–	–	–	–
CN(C)CC1CC1c1csc2ccccc12 (stereo in doubt; (+)-6) [listing 1 of 2 here]	55	–	–	–	–
CN(C)CC1CC1c1csc2ccccc12 (stereo in doubt; (+)-6) [listing 2 of 2 here]	–	24	–	13	–
CN(C)CC1CC1c1csc2ccccc12 (stereo in doubt; (-)-6)	150	–	–	–	–

From ChEMBL document CHEMBL1139814, “Conformationally restricted homotryptamines. Part 4: Heterocyclic and naphthyl analogs of a potent selective serotonin reuptake inhibitor” (Bioorg Med Chem Lett, 2007)
